Source: patent US8772509B2, “Indole compounds as positive allosteric modulators of the muscarinic receptor” (Vanderbilt University, priority 2010, dated 2014)

Molecular target: T1, mAChR M1 (UniProt P08482)
T1 sequence (P08482 1-460): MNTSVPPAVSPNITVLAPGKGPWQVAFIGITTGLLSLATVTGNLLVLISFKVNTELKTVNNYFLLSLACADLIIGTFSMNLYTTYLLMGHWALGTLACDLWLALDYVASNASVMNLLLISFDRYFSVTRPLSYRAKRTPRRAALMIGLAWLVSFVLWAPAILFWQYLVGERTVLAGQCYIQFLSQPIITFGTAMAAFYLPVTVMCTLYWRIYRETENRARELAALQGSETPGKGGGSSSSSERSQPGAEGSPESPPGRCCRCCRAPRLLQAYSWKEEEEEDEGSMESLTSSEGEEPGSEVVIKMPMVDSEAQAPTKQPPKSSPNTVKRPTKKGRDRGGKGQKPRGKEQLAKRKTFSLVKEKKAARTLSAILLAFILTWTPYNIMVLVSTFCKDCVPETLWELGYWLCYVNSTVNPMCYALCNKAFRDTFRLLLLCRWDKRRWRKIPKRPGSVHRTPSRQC
Assay: mAChR M1 cell-based functional assay (calcium mobilization, Fluo-4, FDSS)
Conditions: positive allosteric modulation of EC20 acetylcholine response, CHO-K1 cells expressing mAChR M1; read-out: Potency (EC50)

EC50: > 10 µM
SMILES: Cc1cc(NC(=O)CS(=O)(=O)c2cn(Cc3cccc(-c4ccc(N5CCNCC5)nc4)c3)c3ccccc23)no1 [compound 70, N-(5-methyl-1,2-oxazol-3-yl)-2-[1-({3-[6-(piperazin-1-yl)pyridin-3-yl]phenyl}methyl)-1H-indole-3-sulfonyl]acetamide]
